Laboratory results: patent US10201546B2, “Quinolinyl modulators of RORγt” (Janssen Pharmaceutica NV, priority 2013, dated 2019)
Where a name gives a salt, the structure may show the parent alone. Read-outs that look alike come from different tables or passages of the source.

Assays:
[1] = target: human RORγt ligand binding domain (RORγt LBD) (Homo sapiens (Human), UniProt P51449); assay: RORγt ThermoFluor assay (thermal shift, binding affinity Kd)
[2] = target: human RORγt LBD fused to the DNA binding domain of the GAL4 protein (Homo sapiens (Human), UniProt P51449); assay: RORγt (LBD) reporter assay in HEK293T cells; assay type: cell-based; design: RORγt (LBD) Reporter Assay, % inhibition: dose or concentration left out as unconfirmed; conditions: for inhibition at 6 µM: HEK-293T, read-out: RORγt (LBD) Reporter Assay, % inhibition @ 6 μM, @ 6 μM
Chain of human RORγt LBD fused to the DNA binding domain of the GAL4 protein (P51449 258-518): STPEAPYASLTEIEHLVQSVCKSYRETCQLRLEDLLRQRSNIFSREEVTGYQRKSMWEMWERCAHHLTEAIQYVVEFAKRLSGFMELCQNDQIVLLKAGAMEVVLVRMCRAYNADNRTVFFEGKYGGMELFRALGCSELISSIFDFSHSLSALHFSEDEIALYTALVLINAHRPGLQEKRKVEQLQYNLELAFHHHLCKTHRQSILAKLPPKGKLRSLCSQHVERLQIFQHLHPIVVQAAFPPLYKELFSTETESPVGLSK
Description: A reporter assay was used to test functional activity of RORγt modulatory compounds on transcriptional activation driven by the RORγt LBD. Cells used in the assay were co-transfected with two constructs. The first construct, pBIND-RORγt LBD, contained the wild type human RORγt LBD fused to the DNA binding domain of the GAL4 protein. The second construct, pGL4.31 (Promega Cat no. C935A), contained multiple GAL4 responsive DNA elements upstream of firefly luciferase.
The pBIND vector contains the GAL4 DNA Binding Domain (GAL4 DBD) and the renilla luciferase gene under control of the SV40 promoter. Renilla luciferase expression serves as a control for transfection efficiency and cell viability.
The reporter assay was performed by transiently transfecting HEK293T cells with 5 μg of pBIND-RORγt LBD or pBIND-RORγt LBD-AF2 and 5 μg pGL4.31 (Promega Cat no. C935A) using Fugene 6 (Invitrogen Cat no. E2691) at a 1:6 ratio of DNA:Fugene 6 in a T-75 flask in which cells were at least 80% confluent. Twenty four hours after bulk transfection, cells were plated into 96-well plates at 50,000 cells/well in phenol-red free DMEM containing 5% Lipid Reduced FCS and Pen/Strep. Six hours after plating, cells were treated with compounds for 24 hours. Media was removed and cells were lysed with 50 μL 1× Glo Lysis Buffer (Promega). Dual Glo Luciferase Reagent (50 μL/well) was then added and firefly luciferase luminescence was read on an Envision after a ten minute incubation. Finally, Stop and Glo reagent (50 L/well) was added and renilla luciferase luminescence was read on an Envision after a ten minute incubation. To calculate the effect of compounds on RORγt activity, the ratio of firefly to renilla luciferase was determined and plotted against compound concentration. Agonist compounds increase RORγt-driven luciferase expression, and antagonist or inverse agonist compounds decrease luciferase expression.

[3] = read-out: ThermoFluor Assay, Kd
[4] = read-out: ThermoFluor ® Assay, Kd

Chain of human RORγt ligand binding domain (RORγt LBD) (P51449 other isoform, or with tags, fused parts or gaps): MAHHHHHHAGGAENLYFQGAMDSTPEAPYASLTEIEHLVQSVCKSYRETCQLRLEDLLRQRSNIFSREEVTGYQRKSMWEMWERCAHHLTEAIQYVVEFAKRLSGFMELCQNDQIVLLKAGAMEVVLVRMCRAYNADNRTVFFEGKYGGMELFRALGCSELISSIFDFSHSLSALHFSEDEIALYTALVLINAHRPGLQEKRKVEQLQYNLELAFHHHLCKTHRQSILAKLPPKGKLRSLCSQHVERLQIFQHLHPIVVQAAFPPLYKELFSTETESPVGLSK

SMILES	Kd [1, 3] [nM]	IC50 [2] [µM]	inhibition at 6 µM [2] [%]	RORγt (LBD) Reporter Assay, % inhibition @ 6 μM [2] [%]	Kd [1, 4] [nM]	RORγt (LBD) Reporter Assay, % inhibition [2] [%]
COc1nc2ccc(C(O)(c3cncn3C)C3CCN(S(C)(=O)=O)CC3)cc2c(Cl)c1CC1CCOCC1 (single isomer, unassigned) [Example 6b, (4-Chloro-2-methoxy-3-((tetrahydro-2H-pyran-4-yl)methyl)quinolin-6-yl)(1-methyl-1H-imidazol-5-yl)(1-(methylsulfonyl)piperidin-4-yl)methanol]	240	> 6	17	–	–	–
COc1nc2ccc(C(O)(c3cncn3C)C3CCN(S(C)(=O)=O)CC3)cc2c(Cl)c1CC1CCOCC1 (single isomer, unassigned) [Example 6c, (4-Chloro-2-methoxy-3-((tetrahydro-2H-pyran-4-yl)methyl)quinolin-6-yl)(1-methyl-1H-imidazol-5-yl)(1-(methylsulfonyl)piperidin-4-yl)methanol]	130	> 6	–	26	–	–
COc1nc2ccc(C(O)(c3cnc(C)n3C)c3cnc(C)n3C)cc2c(Cl)c1OC1CCCN(C)C1 (single isomer, unassigned) [Example 51c, (4-Chloro-2-methoxy-3-{[1-methylpiperidin-3-yl]oxy}quinolin-6-yl)[bis(1,2-dimethyl-1H-imidazol-5-yl)]methanol]	5000	> 6	-4	–	–	–
COc1nc2ccc(C(O)(c3ccc(C)nc3C)c3cnnn3C)cc2c(Cl)c1OCCN1CCCC1 (single isomer, unassigned) [Example 67b, [4-Chloro-2-methoxy-3-(2-pyrrolidin-1-ylethoxy)quinolin-6-yl](2,6-dimethylpyridin-3-yl)(1-methyl-1H-1,2,3-triazol-5-yl)methanol]	1000	> 6	-37	–	–	–
COc1nc2ccc(C(O)(c3ccc(C)nc3C)c3cnnn3C)cc2c(Cl)c1OCCS(C)(=O)=O (single isomer, unassigned) [Example 70b, {4-Chloro-2-methoxy-3-[2-(methylsulfonyl)ethoxy]quinolin-6-yl}(2,6-dimethylpyridin-3-yl)(1-methyl-1H-1,2,3-triazol-5-yl)methanol]	2200	> 6	28	–	–	–
COc1nc2ccc(C(O)(c3ccc(C)nc3C)c3cnnn3C)cc2c(Cl)c1OCCN(C)C (single isomer, unassigned) [Example 74b, {4-Chloro-3-[2-(dimethylamino)ethoxy]-2-methoxyquinolin-6-yl}(2,6-dimethylpyridin-3-yl)(1-methyl-1H-1,2,3-triazol-5-yl)methanol]	4900	> 6	-9	–	–	–
COc1nc2ccc(C(O)(c3ccc(C(F)(F)F)nc3)c3cncn3C)cc2c(Cl)c1OCc1cccnc1 (single isomer, unassigned) [Example 76b, [4-Chloro-2-methoxy-3-(pyridin-3-ylmethoxy)quinolin-6-yl](1-methyl-1H-imidazol-5-yl)[6-(trifluoromethyl)pyridin-3-yl]methanol]	1200	> 6	–	−17	–	–
COc1nc2ccc(C(O)(c3ccc(C(F)(F)F)nc3)c3cncn3C)cc2c(Cl)c1OCc1cccnc1 (single isomer, unassigned) [Example 76c, [4-Chloro-2-methoxy-3-(pyridin-3-ylmethoxy)quinolin-6-yl](1-methyl-1H-imidazol-5-yl)[6-(trifluoromethyl)pyridin-3-yl]methanol]	110	> 6	–	−35	–	–
Cc1ccc(C(O)(c2ccc3nc(Cl)c(CC(F)(F)F)c(N4CCC4)c3c2)c2cnnn2C)c(C)n1 (single isomer, unassigned) [Example 238b, [4-(Azetidin-1-yl)-2-chloro-3-(2,2,2-trifluoroethyl)-6-quinolyl]-(2,6-dimethyl-3-pyridyl)-(3-methyltriazol-4-yl)methanol]	–	> 6	–	–	13000	9
COc1nc2ccc(C(O)(c3ccccc3)C3CCN(C(C)=O)CC3)cc2c(Cl)c1CC1CCOCC1 (stereo not shown) [Example 4a, 1-(4-((4-Chloro-2-methoxy-3-((tetrahydro-2H-pyran-4-yl)methyl)quinolin-6-yl)(hydroxy)(phenyl)methyl)piperidin-1-yl)ethanone]	16	> 6	24	–	–	–
COc1nc2ccc([C@](O)(c3ccccc3)C3CCN(C(C)=O)CC3)cc2c(Cl)c1CC1CCOCC1 [Example 4c]	53	> 6	–	−6	–	–
COc1nc2ccc(C(O)(c3cncn3C)C3CCN(S(C)(=O)=O)CC3)cc2c(Cl)c1CC1CCOCC1 (stereo not shown) [Example 6a, (4-Chloro-2-methoxy-3-((tetrahydro-2H-pyran-4-yl)methyl)quinolin-6-yl)(1-methyl-1H-imidazol-5-yl)(1-(methylsulfonyl)piperidin-4-yl)methanol]	220	> 6	26	–	–	–
CC(=O)N1CCC(C(O)(c2ccc3nc(C(F)(F)F)c(C(=O)N4CCCCC4)c(C(F)(F)F)c3c2)c2cncn2C)CC1 (stereo not shown) [Example 9, 1-(4-(Hydroxy(1-methyl-1H-imidazol-5-yl)(3-(piperidine-1-carbonyl)-2,4-bis(trifluoromethyl)quinolin-6-yl)methyl)piperidin-1-yl)ethanone]	8200	> 6	16	–	–	–
Cc1c(-c2ccc3c(cnn3C)c2)nc2ccc(C(O)(c3cccnc3)c3cccc(Cl)c3)cc2c1Cl (stereo not shown) [Example 24, [4-Chloro-3-methyl-2-(1-methyl-1H-indazol-5-yl)quinolin-6-yl](3-chlorophenyl)pyridin-3-ylmethanol]	2000	> 6	29	–	–	–
Cn1cncc1C(O)(c1ccc(C(F)(F)F)nc1)c1ccc2nc(N3CCC3)c(OCc3ccccc3)c(Cl)c2c1 (stereo not shown) [Example 31, [2-Azetidin-1-yl-3-(benzyloxy)-4-chloroquinolin-6-yl](1-methyl-1H-imidazol-5-yl)[6-(trifluoromethyl)pyridin-3-yl]methanol.TFA]	27	> 6	-32	–	–	–
COc1nc2ccc(C(O)(c3ccc(C(F)(F)F)nc3)c3cncn3C)cc2c(Cl)c1CCC1CCN(C(C)=O)CC1 (stereo not shown) [Example 32, {3-[2-(1-Acetylpiperidin-4-yl)ethyl]-4-chloro-2-methoxyquinolin-6-yl}(1-methyl-1H-imidazol-5-yl)[6-(trifluoromethyl)pyridin-3-yl]methanol]	39	> 6	32	–	–	–
COc1nc2ccc(C(O)(c3ccc(C(F)(F)F)nc3)c3cncn3C)cc2c(Cl)c1C1=CCN(C)CC1 (stereo not shown) [Example 33, [4-Chloro-2-methoxy-3-(1-methyl-1,2,3,6-tetrahydropyridin-4-yl)quinolin-6-yl](1-methyl-1H-imidazol-5-yl)[6-(trifluoromethyl)pyridin-3-yl]methanol.TFA]	4800	> 6	-32	–	–	–
COc1nc2ccc(C(O)(c3cnc(C)n3C)c3cnc(C)n3C)cc2c(Cl)c1CNC(=O)CCC(F)(F)F [Example 186, N-((6-(Bis(1,2-dimethyl-1H-imidazol-5-yl)(hydroxy)methyl)-4-chloro-2-methoxyquinolin-3-yl)methyl)-4,4,4-trifluorobutanamide]	–	–	–	–	590	–
